From patent EP1019392B1, “TRICYCLIC AMIDES USEFUL FOR INHIBITION OF G-PROTEIN FUNCTION AND FOR TREATMENT OF PROLIFERATIVE DISEASES” (SCHERING CORPORATION, priority 1995, dated 1997)
Read-outs that look alike come from different tables or passages of the source.

Columns and labels:
[1] = system: SW620-BAG human colon carcinoma cells expressing an activated K-ras gene; experiment: Cell Mat Assay, SW620 tumor cells; type: cell-based
[2] = system: DLD-1 (human colon carcinoma cells, ATCC # CCL 221); experiment: In Vivo Anti-Tumor Studies, subcutaneous DLD-1 tumors; parameters: species or system athymic nu/nu female mice; conditions: Mus musculus, DLD-1, po, QID, 4 weeks, range over the listed compounds; for inhibition in vivo at 10 mg/kg: 10 mg/kg p.o.; for inhibition in vivo at 50 mg/kg: 50 mg/kg p.o.
Description: Tumor cells (5 X 10^5 to 8 X 10^6) of DLD-1 (human colon carcinoma cells, ATCC # CCL 221) are innolculated subcutaneously into the flank of 5-6 week o;d athymic nu/nu female mice.

[3] = system: Normal human HEPM fibroblasts; experiment: Cell Mat Assay, normal cell mat; type: cell-based; conditions: Homo sapiens, Fibroblast, normal monolayer
[4] = system: T24-BAG4 human bladder carcinoma cells expressing an activated H-ras gene; experiment: Cell Mat Assay, T24 tumor cells; type: cell-based; conditions: Homo sapiens, read-out: Tumor (T-24) IC50
[5] = system: DLD-1-BAG human colon carcinoma cells expressing as activated K-ras gene; experiment: Cell Mat Assay, DLD-1 tumor cells; type: cell-based
[6] = system: Ras-CVLS processing in COS monkey kidney cells; experiment: COS cell assay: inhibition of Ras-CVLS processing (Western blot); type: cell-based
[7] = Homo sapiens, SW-620, Mat assay

| SMILES | IC50 ([1]; Mat assay) [µM] | inhibition in vivo at 10 mg/kg [2] [%] | inhibition in vivo at 50 mg/kg [2] [%] | IC50 [3] [µM] | IC50 [4] [µM] | IC50 ([5]; Mat assay) [µM] | IC50 ([6]; Primates, COS) [µM] | IC50 [1, 7] [µM] | IC50 ([5]; Homo sapiens, DLD-1, Mat assay) [µM] | IC50 [6] [µM] |
| --- | --- | --- | --- | --- | --- | --- | --- | --- | --- | --- |
| O=C(Cc1cc[n+]([O-])cc1)N1CCN([C@H]2c3ncc(Br)cc3CCc3cc(Cl)cc(Br)c32)CC1 [Example 11A] | > 6.25 | 7 to 50 | 35.4 to 83 | > 25 | < 1.6 | < 1.6 | < 0.025 |  |  |  |
| O=C(Cc1cc[n+]([O-])cc1)N1CCC([C@H]2c3ncc(Br)cc3CCc3cc(Cl)cc(Br)c32)CC1 [Example 9] |  | 7 to 50 | 35.4 to 83 | > 25 | < 1.6 |  | 0.01 | 6.25 | < 1.6 |  |
| NC(=O)N1CCC(CC(=O)N2CCC(C3c4ccc(Cl)c(Br)c4CCc4cc(Br)cnc43)CC2)CC1 (single isomer, unassigned) [Example 13] |  | 7 to 50 | 35.4 to 83 |  | < 1.6 |  |  |  |  | 0.42 |
| O=C(Cc1cc[n+]([O-])cc1)N1CCC(=C2c3ccc(Cl)c(Br)c3CCc3cc(Br)cnc32)CC1 [Example 2] |  | 7 to 50 | 35.4 to 83 | > 25 | < 1.6 |  |  | 6.25 | 6.25 |  |
| O=C(Cc1cc[n+]([O-])cc1)N1CCC(=C2c3ncc(Br)cc3CCc3cc(Cl)cc(Br)c32)CC1 (racemic) [Example 7] |  | 7 to 50 | 35.4 to 83 | > 25 | < 1.6 |  | < 0.25 | 6.25 |  |  |
| O=C(Cc1cc[n+]([O-])cc1)N1CCC(C2c3ccc(Cl)c(Br)c3CCc3cc(Br)cnc32)CC1 (single isomer, unassigned) [Example 14A] |  | 7 to 50 | 35.4 to 83 | > 25 | < 1.6 |  |  | 12.5 | 6.25 | 0.48 |
| O=C(Cc1cc[n+]([O-])cc1)N1CCN([C@H]2c3ccc(Cl)c(Br)c3CCc3cc(Br)cnc32)CC1 [Example 5] |  | 7 to 50 | 35.4 to 83 | > 25 | < 1.6 |  |  | 6.25 | 3.1 |  |
| O=C(Cc1cc[n+]([O-])cc1)N1CCN([C@H]2c3ccc(Cl)cc3CCc3cc(Br)cnc32)CC1 [Example 16B] |  | 7 to 50 | 35.4 to 83 | > 25 | < 1.6 |  | 0.125 | 25 | 6.25 |  |
| NC(=O)N1CCC(CC(=O)N2CCC(C3c4ncc(Br)cc4CCc4cc(Cl)cc(Cl)c43)CC2)CC1 (single isomer, unassigned) [Example 18] |  | 7 to 50 | 35.4 to 83 |  |  |  | 0.025 |  |  |  |
| O=C(Cc1cc[n+]([O-])cc1)N1CCN([C@@H]2c3ccc(Cl)cc3CCc3cc(Br)cnc32)CC1 [Example 16A] |  |  |  |  |  |  | 0.5 |  |  |  |
